Target: Fatty acid synthase (Homo sapiens, UniProt P49327)
Experiment: Inhibition of fatty acid synthase

Sequence of Fatty acid synthase (P49327 whole entry): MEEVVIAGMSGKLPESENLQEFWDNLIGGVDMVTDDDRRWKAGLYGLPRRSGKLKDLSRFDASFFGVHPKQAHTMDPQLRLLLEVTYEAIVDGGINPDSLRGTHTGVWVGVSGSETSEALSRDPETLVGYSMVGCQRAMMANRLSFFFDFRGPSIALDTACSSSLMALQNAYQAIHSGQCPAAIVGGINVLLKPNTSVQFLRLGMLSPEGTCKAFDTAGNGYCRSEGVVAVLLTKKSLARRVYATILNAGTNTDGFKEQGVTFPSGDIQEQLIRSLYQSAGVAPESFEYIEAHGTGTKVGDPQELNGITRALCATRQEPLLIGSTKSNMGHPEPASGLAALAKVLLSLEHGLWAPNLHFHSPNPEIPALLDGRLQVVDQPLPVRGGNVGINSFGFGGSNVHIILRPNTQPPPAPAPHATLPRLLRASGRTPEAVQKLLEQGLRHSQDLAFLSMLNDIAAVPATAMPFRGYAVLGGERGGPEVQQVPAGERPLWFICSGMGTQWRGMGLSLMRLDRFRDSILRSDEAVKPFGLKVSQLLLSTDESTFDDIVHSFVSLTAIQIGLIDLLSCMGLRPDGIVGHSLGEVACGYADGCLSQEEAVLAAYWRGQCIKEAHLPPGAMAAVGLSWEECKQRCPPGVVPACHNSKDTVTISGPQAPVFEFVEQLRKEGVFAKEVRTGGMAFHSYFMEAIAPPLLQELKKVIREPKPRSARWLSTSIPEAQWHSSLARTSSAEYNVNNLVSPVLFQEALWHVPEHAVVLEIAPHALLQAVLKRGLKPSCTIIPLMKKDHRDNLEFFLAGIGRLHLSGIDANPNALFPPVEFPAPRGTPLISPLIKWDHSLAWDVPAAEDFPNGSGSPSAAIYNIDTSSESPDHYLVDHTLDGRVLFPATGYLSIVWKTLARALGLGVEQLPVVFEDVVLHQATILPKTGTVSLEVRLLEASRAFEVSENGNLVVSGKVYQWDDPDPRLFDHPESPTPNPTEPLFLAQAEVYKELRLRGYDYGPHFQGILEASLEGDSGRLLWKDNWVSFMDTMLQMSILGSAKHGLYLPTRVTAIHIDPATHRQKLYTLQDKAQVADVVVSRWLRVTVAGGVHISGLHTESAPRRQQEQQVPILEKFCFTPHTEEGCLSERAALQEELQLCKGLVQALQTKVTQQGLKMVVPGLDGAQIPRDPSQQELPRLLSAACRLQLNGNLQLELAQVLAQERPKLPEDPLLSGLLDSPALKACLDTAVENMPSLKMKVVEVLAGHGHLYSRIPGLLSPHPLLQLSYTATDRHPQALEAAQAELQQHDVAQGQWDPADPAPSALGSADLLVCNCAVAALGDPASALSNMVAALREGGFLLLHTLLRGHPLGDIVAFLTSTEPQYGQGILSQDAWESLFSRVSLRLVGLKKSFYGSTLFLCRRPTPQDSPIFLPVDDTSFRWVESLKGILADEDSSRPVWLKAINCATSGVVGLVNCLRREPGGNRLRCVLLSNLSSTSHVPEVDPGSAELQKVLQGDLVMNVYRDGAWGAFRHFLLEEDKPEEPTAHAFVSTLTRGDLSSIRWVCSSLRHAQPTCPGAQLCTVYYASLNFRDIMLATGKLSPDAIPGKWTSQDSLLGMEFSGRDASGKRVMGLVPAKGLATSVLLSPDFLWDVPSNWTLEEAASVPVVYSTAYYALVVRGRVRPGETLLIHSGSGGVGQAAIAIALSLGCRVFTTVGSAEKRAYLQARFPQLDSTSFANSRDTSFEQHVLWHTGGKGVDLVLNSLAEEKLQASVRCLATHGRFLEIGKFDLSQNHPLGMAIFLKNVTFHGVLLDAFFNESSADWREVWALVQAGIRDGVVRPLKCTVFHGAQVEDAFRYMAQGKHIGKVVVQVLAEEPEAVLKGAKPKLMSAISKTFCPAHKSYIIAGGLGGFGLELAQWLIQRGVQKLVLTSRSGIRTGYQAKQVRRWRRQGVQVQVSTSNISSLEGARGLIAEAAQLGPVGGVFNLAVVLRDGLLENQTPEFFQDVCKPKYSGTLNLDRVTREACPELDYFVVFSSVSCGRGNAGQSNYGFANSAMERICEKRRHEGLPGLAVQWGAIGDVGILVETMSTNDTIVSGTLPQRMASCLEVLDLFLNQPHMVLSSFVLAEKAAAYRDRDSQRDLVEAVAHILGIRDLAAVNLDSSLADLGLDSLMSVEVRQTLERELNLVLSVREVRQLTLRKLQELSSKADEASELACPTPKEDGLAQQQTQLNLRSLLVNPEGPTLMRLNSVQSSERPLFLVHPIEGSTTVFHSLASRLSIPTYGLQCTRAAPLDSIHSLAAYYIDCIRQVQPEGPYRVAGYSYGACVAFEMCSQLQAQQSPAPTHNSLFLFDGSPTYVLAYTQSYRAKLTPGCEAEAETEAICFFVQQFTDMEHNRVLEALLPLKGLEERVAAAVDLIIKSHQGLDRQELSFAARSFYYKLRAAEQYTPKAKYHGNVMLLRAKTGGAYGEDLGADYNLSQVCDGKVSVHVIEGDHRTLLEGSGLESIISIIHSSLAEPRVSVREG

Compound | IC50
C/C=C/C/C=C/CCC(=O)[C@H]1O[C@H]1C(N)=O [CERULENIN] | 851 nM
COc1ccc([C@@H]2CC(=O)c3c(O)c(C)c(O[C@@H]4O[C@H](CO[C@@H]5OC[C@H](O)[C@H](O)[C@H]5O)[C@@H](O)[C@H](O)[C@H]4O)c(C)c3O2)cc1 [MICONIOSIDE A] | > 82200 nM

Source: ChEMBL document CHEMBL1158883, “Flavanone glycosides from Miconia trailii” (J Nat Prod, 2003)
